2 compounds from patent publication US20240299358A1, “COMPOSITIONS AND METHODS FOR DIAGNOSIS AND TREATMENT OF AUTOIMMUNE DISEASES” (DUKE UNIVERSITY, priority 2021, published 2024) can be followed below.

Experiment [1] relates to eHsp90. Briefly: Flow cytometry uptake of fluor-tethered Hsp90 inhibitors by T cells from human PBMCs. In kind it is cell-based. Here is the method: T-cell activation: PBMC aliquots (ZenBio SER-PBMC-F) were washed in RPMI-1640 with 10% FBS and PSG and then rested overnight in a T-75 flask. The suspended cells were then transferred to a fresh flask and activated in fresh RPMI-1640/10% FBS/PSG by 3:20,000 anti-CD3 (BioLegend 317303), 3:20,000 anti-CD28 (BioLegend 302913), and 1:10,000 (30 IU/mL) human IL-2 (CST 8907SC) and incubated for up to 72 hours. In the experiments with longer activation, samples were diluted 1:3 into fresh media containing hIL-2 at 72 hours post initial stimulation with CD3/CD28 antibodies.
Flow Cytometry: The activated/rested cells were plated into a 96-well round bottom plate and pelleted at low speed. Cells were resuspended in chilled media containing titrated HS-131 or HS-198 (in 1% DMSO) and stained for 30 minutes at RT. Fluorochrome tagged inhibitors and media were washed away with a PBS wash, followed by a PBS wash containing 3% NMS. Surface antibody stains were performed in 3% NMS/PBS for 30 minutes followed by PBS washes (2x). Samples were analyzed on BD FACSCanto II flow cytometer. Permeabilized samples were prepared as previously described followed by fixation in 4% Formaldehyde/PBS overnight at 4° C. Sample analysis was performed with Flowing Software and FlowJo.
A hallmark of T cell function is to proliferate rapidly in response to antigen presentation along with appropriate cytokine and costimulatory signaling. This leads to the induction of the chaperone machinery which is essential in facilitating this process. In some respects, antigen induced T cell proliferation may be analogous to oncogene driven metastasis. Therefore, to investigate whether proliferating T cells similarly express eHsp90 during T cell activation, their ability to absorb fluor-tethered Hsp90 inhibitors following an anti-CD3/CD28 challenge was examined (see. FIGS. 2A-2E). The structures of two types of fluor-tethered Hsp90 inhibitors (HS-131 and […]) that were used in the present studies are shown in FIG. 2A. […]

Experiment [2] relates to eHsp90. Briefly: In vivo tracking of eHsp90 expression in CIA mouse model of RA (flow cytometry, CryoViz imaging). Conditions: 6 hours post tail vein injection, CD4 and CD8 T cells (FIG. 5B). Here is the method: FIG. 5A is a schematic of CIA mouse model of RA experimental design, wherein mice were inoculated with CIA on day 0) and 21. […] 6-hours post treatment mice were whole body cryopreserved. […] Gated regions indicate CD4 and CD8 T-Cell populations isolated from individual mice. eHsp90 expression in CD4 and CD8 T cells 6 hours post HS-131 or HS-198 treatment. N=3+SD. Experiments represent 3 biological replicates.
CIA Disease: Collagen was prepared at 4 mg/ml in 0.01 N acetic acid. Equal volumes of 4 mg/ml collagen and 5 mg/ml Freund's complete adjuvant were emulsified by hand mixing with syringes for approximately 5 min, at which point a bead of this material holds its form when placed in water. On study days 0 and 21, animals were anesthetized with isoflurane and given intradermal injections of a total of 400 μg of type II collagen in Freund's complete adjuvant at the base of the tail.
CryoViz™ Imaging: Whole mice were imaged at 10.23 μm×10.23 μm in-plane resolution using an Olympus MVX-10 microscope with a 1X objective and 0.63× magnification and 40 μm section thickness, using the Cryo Viz™ (BioInVision, Inc., Cleveland, USA). CryoViz™ is a fully automated, serial sectioning-and-imaging system which provides 3-dimensional, tiled, microscopic anatomical bright field and molecular fluorescence images over large fields-of-view such as a whole mouse. Images were acquired using a dual band FITC/TxRed fluorescence filter (Chroma, Inc., Rockingham, VT), a liquid crystal RGB filter and a low-noise monochrome camera. Raw images acquired by the Cryo Viz™ were processed to generate 3D color anatomical brightfield and molecular fluorescence volumes using the Cryo Viz™ Preprocessor software (BioIn Vision, Inc., Cleveland, Ohio). These 3D volumetric image data were then processed using the CryoViz™ 3D Visualizer software (BioInVision, Inc., Cleveland, USA) to obtain 3D reconstructed brightfield and fluorescence volume renderings and movies with 2D slice cutaway animations, showing the 2D/3D biodistribution of TxRed labeled HS-131 within the mouse volume.
This was consistently seen in cell culture, tumor cell xenografts and mouse models of spontaneous metastatic disease (Barrott et al. Chem Biol 20. 1187-1197 (2013)). […] To determine if this phenomenon occurred within the context of a fully functional immune system, the collagen induced arthritic (CIA) mouse model of human rheumatoid arthritis (RA) was utilized (Rice et al. Arthritis Rheum 58. 3765-3775 (2008)). Mice (DBA/IlacJ ˜8 weeks old) reliably develop polyarthritis when immunized against bovine type II collagen (Scarneo et al. Arthritis Res Ther 21, 292 (2019): Campbell et al., Ann Rheum Dis 56, 364-368 (1997)). The disease that occurs is usually non-symmetric, and any combination of paws/joints may be affected. Mice were injected […] with bovine collagen at Day (and then again 21 days later (FIG. 5A). This second injection triggered the development of the CIA related symptoms over the next several days within the joints. A primary mediator of local inflammatory responses in autoimmunity are invading T cell populations recognizing foreign antigens. To determine if invading T cells at sites of active disease expressed eHsp90, the animals were injected with HS-131 or HS-198. This was done at the peak of RA symptoms following the second immune challenge. After 6 hours, the animals were euthanized, immediately cryo-frozen in liquid nitrogen and cryo-sectioned (see, FIG. 5A).
Approximately, 500 40 μm slices were made and each slice imaged with both bright field and by fluorescence at Ex640 nm/Em680 nm. Evaluation of the biodistribution was then made by histological examination of individual slices and after in silico reconstruction of the entire mouse anatomy (see, FIGS. 5B-5E).
In general terms: Flow cytometry measures light scatter and fluorescence of single cells or particles in a stream.

Regarding `Cc1nn(-c2ccc(C(=O)N(C)C)c(NCCCOCCOCCOCCOCCOCCCNCc3ccc(C(=C\C=C4/N(CCCCS(=O)(=O)O)c5ccccc5C4(C)C)/C=C/C4=[N+](CCCCS(=O)(=O)[O-])c5ccccc5C4(C)C)cc3)c2)c2c1C(=O)CC(C)(C)C2` [HS-198], the “uptake of inactive analogue by stimulated T cells” value in the experiment with eHsp90 [1] (10 μM (FIG. 2D)) is given as “minimal uptake”. In the experiment on eHsp90 [2], the “probe signal (eHsp90 expression) in T cells of PBMC populations from CIA mice by flow cytometry” value is reported as “No signal”.

`CC(C)c1cc(-c2n[nH]c(=O)n2-c2ccc3c(ccn3C)c2)c(O)cc1O` [ganetespib, reference compound]: the “fluor signal on competition with Hsp90 inhibitor” value in the experiment with eHsp90 [1] (saturating dose, 10-fold excess of ganetespib over 10 μM HS-131 (FIG. 2D)) was “effectively blocked”.
